Experimental data as given in patent US9376418B2, “Substituted pyridine spleen tyrosine kinase (SYK) inhibitors” (Merck Sharp & Dohme Corp., priority 2012, dated 2016).

What follows are compounds tested against T1, recombinant human GST-SYK (Homo sapiens, UniProt P43405) (assay: Homogeneous Time-Resolved Fluorescence (HTRF) assay for the recombinant human Syk enzyme). Settings: HTRF assay, recombinant human GST-SYK; IC50 given as class symbols; read-out: rhSYK Activity.
T1 construct: purchased Carna Biosciences 08-176
Format: biochemical
Outline: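 GST-hSYK ([…]) was preincubated with inhibitor (0.1% DMSO) for 10 min at room temperature in Tris-HCl pH 7.5 with tween 20 and DTT. Biotinylated peptide (250 nM), Mg (5 mM) and ATP (25 μM) were added for 45 min. The reaction was quenched with EDTA, and phosphotyrosine was read by Eu-antibody/SA-APC HTRF after 30 min.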

Row | SMILES | IC50 [nM]
1 | Cc1cc(Nc2nccc(C(F)(F)F)n2)cc(-c2ccc(C(=O)N3CCN(CC(F)(F)F)CC3)nc2)c1 [Example 16.65, N-[3-methyl-5-(6-{[4-(2,2,2-trifluoroethyl)piperazin-1-yl]carbonyl}pyridin-3-yl)phenyl]-4-(trifluoromethyl)pyrimidin-2-amine] | 100 to 1000
2 | Cc1cc(Nc2nccc(C(F)(F)F)n2)cc(-c2ccc(CN3CCNC3=O)nc2)c1 [Example 17.1, 1-{[5-(3-Methyl-5-{[4-(trifluoromethyl)pyrimidin-2-yl]amino}phenyl)pyridin-2-yl]methyl}imidazolidin-2-one] | < 100
3 | Cc1cc(Nc2nccc(C(F)(F)F)n2)cc(-c2ccc(CNC(N)=O)nc2)c1 [Example 17.2, 1-{[5-(3-methyl-5-{[4-(trifluoromethyl)pyrimidin-2-yl]amino}phenyl)pyridin-2-yl]methyl}urea] | < 100
4 | CNC(=O)NCc1ccc(-c2cc(C)cc(Nc3nccc(C(F)(F)F)n3)c2)cn1 [Example 17.3, 1-methyl-3-{[5-(3-methyl-5-{[4-(trifluoromethyl)pyrimidin-2-yl]amino}phenyl)pyridin-2-yl]methyl}urea] | < 100
5 | CCC(C)(C#N)Nc1ccc(-c2cc(C)cc(Nc3nccc(C(F)(F)F)n3)c2)cn1 (centres unmarked) [Example 18.1, 2-Methyl-2-{[5-(3-methyl-5-{[4-(trifluoromethyl)pyrimidin-2-yl]amino}phenyl)pyridin-2-yl]amino}butanenitrile] | < 100
6 | Cc1cc(Nc2nccc(C(F)(F)F)n2)cc(-c2ccc(NC(C)(C#N)C(C)(C)C)nc2)c1 (centres unmarked) [Example 18.3, 2,3,3-trimethyl-2-{[5-(3-methyl-5-{[4-(trifluoromethyl)pyrimidin-2-yl]amino}phenyl)pyridin-2-yl]amino}butanenitrile] | 100 to 1000
7 | CCC(C)(C#N)Nc1ccc(-c2cc(C)cc(Nc3nccc(C(F)(F)F)n3)c2)cn1 (centres unmarked) [Example 18.4, 2-methyl-2-{[5-(3-methyl-5-{[4-(trifluoromethyl)pyrimidin-2-yl]amino}phenyl)pyridin-2-yl]amino}butanenitrile] | 100 to 1000
8 | Cc1cc(Nc2nccc(C(F)(F)F)n2)cc(-c2ccc(NC(C)(CC(F)(F)F)C(=O)O)nc2)c1 (centres unmarked) [Example 18.5, 4,4,4-Trifluoro-N-[5-(3-methyl-5-{[4-(trifluoromethyl)pyrimidin-2-yl]amino}phenyl)pyridin-2-yl]isovaline] | < 100
9 | CCC(C)(Nc1ccc(-c2cc(C)cc(Nc3nccc(C(F)(F)F)n3)c2)cn1)C(=O)O (centres unmarked) [Example 18.6] | < 100
10 | Cc1cc(Nc2nccc(C(F)(F)F)n2)cc(-c2ccc(NC(C)(CC(F)(F)F)c3nnn[nH]3)nc2)c1 (centres unmarked) [Example 18.7, N-[3-methyl-5-(6-{[4,4,4-trifluoro-2-(1H-tetrazol-5-yl)butan-2-yl]amino}pyridin-3-yl)phenyl]-4-(trifluoromethyl)pyrimidin-2-amine] | < 100
11 | Cc1cc(Nc2nccc(C(F)(F)F)n2)cc(-c2ccc(NC(C)(C)c3nnn[nH]3)nc2)c1 [Example 18.8, N-[3-methyl-5-(6-{[1-methyl-1-(1H-tetrazol-5-yl)ethyl]amino}pyridin-3-yl)phenyl]-4-(trifluoromethyl)pyrimidin-2-amine] | < 100
12 | Cc1cc(Nc2nccc(C(F)(F)F)n2)cc(-c2ccc(NC(C)(c3nnn[nH]3)C(C)(C)C)nc2)c1 (centres unmarked) [Example 18.9, N-[3-methyl-5-(6-{[1,2,2-trimethyl-1-(1H-tetrazol-5-yl)propyl]amino}pyridin-3-yl)phenyl]-4-(trifluoromethyl)pyrimidin-2-amine] | < 100
13 | Cc1cc(Nc2nccc(C(F)(F)F)n2)cc(-c2ccc(NC(C)(C)c3nc(=O)o[nH]3)nc2)c1 [Example 18.10, 3-(2-{[5-(3-Methyl-5-{[4-(trifluoromethyl)pyrimidin-2-yl]amino}phenyl)pyridin-2-yl]amino}propan-2-yl)-1,2,4-oxadiazol-5(4H)-one] | < 100
14 | Cc1cc(Nc2nccc(C(F)(F)F)n2)cc(-c2ccc(-c3noc(=O)[nH]3)nc2)c1 [Example 18.11] | < 100
15 | Cc1cc(Nc2nccc(C(F)(F)F)n2)cc(-c2ccc(C(NC(N)=O)(C3CC3)C3CC3)nc2)c1 [Example 19.1, 1-{Dicyclopropyl[5-(3-methyl-5-{[4-(trifluoromethyl)pyrimidin-2-yl]amino}phenyl)pyridin-2-yl]methyl}urea] | < 100
16 | Cc1cc(Nc2nccc(C(C)(F)F)n2)cc(-c2cccnc2)c1 [Example 20.1, 4-(1,1-Difluoroethyl)-N-[3-methyl-5-(pyridin-3-yl)phenyl]pyrimidin-2-amine] | < 100
17 | Cc1cc(Nc2nccc(OC3CCNCC3)n2)cc(-c2cccnc2)c1 [Example 20.2, N-[3-methyl-5-(pyridin-3-yl)phenyl]-4-(piperidin-4-yloxy)pyrimidin-2-amine] | < 100
18 | Cc1cc(Nc2ncc(Cl)c(C(F)(F)F)n2)cc(-c2cccnc2)c1 [Example 20.3] | 100 to 1000

Further lines, results first:

Row | IC50 [nM] | SMILES
19 | < 100 | Cc1cc(Nc2nccc(C(F)(F)F)n2)cc(-c2ccc(S(=O)(=O)NCC(=O)O)nc2)c1 [Example 21.1, N-{[5-(3-methyl-5-{[4-(trifluoromethyl)pyrimidin-2-yl]amino}phenyl)pyridin-2-yl]sulfonyl}glycine]
20 | 100 to 1000 | Cc1cc(Nc2nccc(C(F)(F)F)n2)cc(-c2ccc(S(=O)(=O)NC3CC3)nc2)c1 [Example 21.2, N-cyclopropyl-5-(3-methyl-5-{[4-(trifluoromethyl)pyrimidin-2-yl]amino}phenyl)pyridine-2-sulfonamide]
21 | < 100 | Cc1cc(Nc2nccc(C(F)(F)F)n2)cc(-c2ccc(S(=O)(=O)NC3CCNC3=O)nc2)c1 (centres unmarked) [Example 21.3, 5-(3-methyl-5-{[4-(trifluoromethyl)pyrimidin-2-yl]amino}phenyl)-N-(2-oxopyrrolidin-3-yl)pyridine-2-sulfonamide]
22 | < 100 | Cc1cc(Nc2nccc(C(F)(F)F)n2)cc(-c2ccc(S(N)(=O)=O)nc2)c1 [Example 21.4, 5-(3-methyl-5-{[4-(trifluoromethyl)pyrimidin-2-yl]amino}phenyl)pyridine-2-sulfonamide]
23 | 100 to 1000 | CCOC(=O)/C=C/c1ccc(-c2cc(C)cc(Nc3nccc(C(F)(F)F)n3)c2)cn1 [Example 22.1, Ethyl-3-[5-(3-methyl-5-{[4-(trifluoromethyl)pyrimidin-2-yl]amino}phenyl)pyridin-2-yl]prop-2-enoate]
24 | < 100 | Cc1cc(Nc2nccc(C(F)(F)F)n2)cc(-c2ccc(/C=C/C(=O)O)nc2)c1 [Example 22.2, 3-[5-(3-Methyl-5-{[4-(trifluoromethyl)pyrimidin-2-yl]amino}phenyl)pyridin-2-yl]prop-2-enoic acid]
25 | < 100 | Cc1cc(Nc2nccc(C(F)(F)F)n2)cc(-c2ccc(CC(C)(C)C(=O)O)nc2)c1 [Example 22.3, 2,2-Dimethyl-3-[5-(3-methyl-5-{[4-(trifluoromethyl)pyrimidin-2-yl]amino}phenyl)pyridin-2-yl]propanic acid]
26 | < 100 | Cc1cc(Nc2nccc(C(F)(F)F)n2)cc(-c2ccc(C(O)C(C)(C)C(=O)O)nc2)c1 (centres unmarked) [Example 23.1, 3-Hydroxy-2,2-dimethyl-3-[5-(3-methyl-5-{[4-(trifluoromethyl)pyrimidin-2-yl]amino}phenyl)pyridin-2-yl]propanoic acid]
